“Also recorded” adds a separate entry of the source.
Assays:
Type in all cases: in vivo, Sprague-Dawley (SD) rats
[1] = test system: rats with a chronic constriction injury (CCI) of the sciatic nerve; test: Antinociception (von Frey paw withdrawal thresholds) in the contralateral hindpaw of CCI-rats; details: i.p. doses up to 30 μg/kg
Procedure: (§1) Adult male Sprague-Dawley (SD) rats were anaesthetized with Zoletil 100® (0.09 ml/200 g) and Xylazil-20™ (0.1 mL/200 g) administered by intraperitoneal (i.p.) injection, and a chronic constriction injury (CCI) of the sciatic nerve was produced according to the method of Bennett and Xie (1988). Briefly, the left common sciatic nerve was exposed at mid-thigh level by blunt dissection through the biceps femoris. Proximal to the trifurcation, 10 mm of nerve was freed of adhering tissue and four loose ligatures (3.0 silk) were tied around the sciatic nerve 1 mm apart). The incision was closed in layers. After surgery, rats received benzylpenicillin (60 mg s.c.) to prevent infection and were kept warm during surgical recovery. Rats were housed singly for 10-14 days prior to AT2 receptor antagonist or vehicle (normal saline) administration. After CCI-surgery, rats were inspected daily with regard to posture of the affected hindpaw, exploring behavior, body weight and water intake, and any signs of autotomy. Whilst under light anaesthesia with CO2/O2 (50:50%), CCI-rats or STZ-diabetic rats received a single bolus injection (200 μL) of one AT2 receptor antagonist (PD123,319 or L-159,686) by the intravenous (i.v.) or the intraperitoneal (i.p.) route, using a 250 μL Hamilton syringe. The test compounds were administered to CCI-rats at 14 days after CCI-surgery and to STZ-diabetic rats at approximately 8-wks after the induction of diabetes with STZ. Relief of tactile (mechanical) allodynia, the defining symptom of neuropathic pain, by each of the test agents, PD123,319 or L-159,686, was quantified using calibrated von Frey filaments as described below. Tactile allodynia was quantified using calibrated von Frey filaments. Rats were placed in wire mesh testing cages (20 cm×20 cm×20 cm) and allowed to acclimatise for approximately […] Von Frey filaments were used to determine the lowest mechanical threshold required for a brisk paw withdrawal reflex. Briefly, the filament that produced the lowest force was applied to the plantar surface of the hindpaw until the filament buckled slightly. Absence of a response after 5 s prompted use of the next filament in an ascending sequence. Filaments used produced a buckling weight of 2, 4, 6, 8, 10, 12, 14, 16, 18 and 20 g and these were calibrated prior to each testing session. […] For CCI-rats, baseline von Frey paw withdrawal thresholds (PWTs) were quantified prior to CCI-surgery, and at 14 days post-surgery immediately prior to drug administration. For STZ-diabetic rats, baseline von Frey PWT values were determined prior to the induction of diabetes with STZ and at 1-2 weekly intervals thereafter for 8 weeks to document the temporal development of tactile allodynia. For all rats, baseline PWTs were the mean of three readings taken, 5 min apart before drug administration and were determined separately for each hindpaw. After administration of each test compound, von Frey PWTs were determined at the following post-dosing times: 0.08, 0.25, 0.5, 0.75, 1, 1.25, 1.5, 2 and 3 h. Paw withdrawal thresholds (PWTs; g) were plotted against time to construct response versus time curves for each of the two test compounds (PD123,319 and L-159,686) for each dose and dosing route. Whilst adult male SD rats were anaesthetized with 3% isoflurane: 97% oxygen, four loose ligatures were tied around one sciatic nerve to produce a unilateral chronic constriction injury (CCI) according to the method of Bennett and Xie (1988, Pain 33: 87-107). […]

[2] = test system: rats with a chronic constriction injury (CCI) of the sciatic nerve; test: Relief of tactile allodynia (von Frey paw withdrawal thresholds) in the ipsilateral (injured) hindpaw of CCI-rats; details: oral bolus 30 μg/kg vs same dose i.p.
[3] = test system: rats with a chronic constriction injury (CCI) of the sciatic nerve; test: as above
Procedure: as §1, with “87-107). Briefly, the left common sciatic nerve was exposed at mid-thigh level by blunt dissection through the biceps femoris. Proximal to the trifurcation, 10 mm of nerve was freed of adhering tissue and four loose ligatures (3.0 silk) were tied around the sciatic nerve 1 mm apart). The incision was closed in layers. After surgery, rats received benzylpenicillin (60 mg s.c.) to prevent infection and were kept warm during surgical recovery.” for “87-107).”

STZ-diabetic rats = test: Relief of tactile allodynia (von Frey paw withdrawal thresholds) in the hindpaws of STZ-diabetic rats (model of PDN)
Procedure: Adult male SD rats were anaesthetized in a manner similar to that described above, to facilitate insertion of a polyethylene cannula (previously filled with 0.1 ml of sterile saline) into the right common jugular vein. Jugular vein cannulae were tested for correct placement by the withdrawal of a small amount of blood. Diabetes was induced following an acute i.v. injection of streptozotocin (STZ) (80 mg/kg) in 0.1 M citrate buffer (pH 4.5) into the jugular vein. Diabetes was confirmed by monitoring the water intake and blood glucose concentration in individual rats. Blood glucose was monitored using either (Glucostix™) or a Precision QID™ test kit.
Consistent with previous studies in the literature (Calcutt et al., 1996, Pain. 68(2-3):293-9), rats that drank more than 100 mL of water per day by 10 days post-STZ injection, were classified as diabetic, and only rats with blood glucose concentrations exceeding 15 mM were included in the subsequent experiments. By comparison, the water intake of control non-diabetic rats was approximately 20 mL per day and blood glucose concentrations were in the range 5-6 mM, consistent with the literature (Calcutt et al., 1996, supra).
Whilst under light anaesthesia with CO2/O2 (50:50%), CCI-rats or STZ-diabetic rats received a single bolus injection (200 μL) of one AT2 receptor antagonist (PD123,319 or L-159,686) by the intravenous (i.v.) or the intraperitoneal (i.p.) route, using a 250 μL Hamilton syringe. The test compounds were administered to CCI-rats at 14 days after CCI-surgery and to STZ-diabetic rats at approximately 8-wks after the induction of diabetes with STZ. Relief of tactile (mechanical) allodynia, the defining symptom of neuropathic pain, by each of the test agents, PD123,319 or L-159,686, was quantified using calibrated von Frey filaments as described below.
Tactile allodynia was quantified using calibrated von Frey filaments. Rats were placed in wire mesh testing cages (20 cm×20 cm×20 cm) and allowed to acclimatise for approximately […] Von Frey filaments were used to determine the lowest mechanical threshold required for a brisk paw withdrawal reflex. Briefly, the filament that produced the lowest force was applied to the plantar surface of the hindpaw until the filament buckled slightly. Absence of a response after 5 s prompted use of the next filament in an ascending sequence. Filaments used produced a buckling weight of 2, 4, 6, 8, 10, 12, 14, 16, 18 and 20 g and these were calibrated prior to each testing session.
For CCI-rats, baseline von Frey paw withdrawal thresholds (PWTs) were quantified prior to CCI-surgery, and at 14 days post-surgery immediately prior to drug administration. For STZ-diabetic rats, baseline von Frey PWT values were determined prior to the induction of diabetes with STZ and at 1-2 weekly intervals thereafter for 8 weeks to document the temporal development of tactile allodynia. For all rats, baseline PWTs were the mean of three readings taken, 5 min apart before drug administration and were determined separately for each hindpaw. After administration of each test compound, von Frey PWTs were determined at the following post-dosing times: 0.08, 0.25, 0.5, 0.75, 1, 1.25, 1.5, 2 and 3 h.
Paw withdrawal thresholds (PWTs; g) were plotted against time to construct response versus time curves for each of the two test compounds (PD123,319 and L-159,686) for each dose and dosing route.
Whilst adult male SD rats were anaesthetized with 3% isoflurane: 97% oxygen, a short polyethylene cannula (0.4 mm ID, 0.8 mm OD) was inserted into the jugular vein to facilitate the intravenous (i.v) administration of a single dose of STZ (75 mg/kg). After removal of the i.v. cannula, the jugular vein was tied off, the wound was closed and topical bupivacaine was applied. Rats received benzylpenicillin (60 mg s.c.) to prevent infection and were kept warm during surgical recovery. […]

[4] = CCI-rats, i.p. bolus 3 to 30 μg/kg
[5] = STZ-diabetic rats, i.p. bolus 1.0 to 100 ng/kg

## COc1ccc2c(c1OCc1ccccc1)C[C@@H](C(=O)O)N(C(=O)C(c1ccccc1)c1ccccc1)C2 [PD-126,055]
[1]
  antinociception in the contralateral hindpaw: insignificant antinociception
[2]
  extent and duration of the anti-allodynic response, oral compared with i.p. route: similar
[3]; CCI-rats vs STZ-diabetic rats
  doses required to produce significant relief of tactile allodynia in CCI-rats compared with STZ-diabetic rats: considerably larger doses
[3]; CCI-rats, 30 μg/kg, irrespective of dosing route (oral or i.p.)
  duration of action: ~3 h
[3]; [4]
  anti-allodynia (relief of tactile allodynia) in the ipsilateral hindpaw: dose-dependent onset of anti-allodynia; also recorded: dose-dependent relief of tactile allodynia
  onset of anti-allodynia in the ipsilateral hindpaw: rapid
  time of peak responses post-dosing: 0.75 to 1 h
[3]; CCI-rats, i.p., doses larger than 3 μg/kg
  duration of action: > 3 h
[3]; CCI-rats, i.p., lowest dose tested (3 μg/kg)
  duration of action: 1.5 h
STZ-diabetic rats; STZ-diabetic rat model of PDN, single i.p. bolus doses
  relief of tactile allodynia (summary in discussion): potent relief of tactile allodynia
STZ-diabetic rats; [5]
  duration of action: 2 to 3 h
  onset of action post-dosing: 0.5 h
  relief of tactile allodynia: significant relief of tactile allodynia
  time of peak anti-allodynia post-dosing: 0.75 to 1.0 h
STZ-diabetic rats; STZ-diabetic rats, i.p., higher doses tested
  reversal of tactile allodynia in the hindpaws: fully reversed
STZ-diabetic rats; STZ-diabetic rats, single i.p. bolus doses
  onset of anti-allodynia (summary in discussion): relatively rapid onset

— patent US9018207B2, “Method of treatment or prophylaxis” (Spinifex Pharmaceuticals Pty Ltd, priority 2004, dated 2015)
